From PubChem BioAssay AID1919014 (Molecular Pharmacology Branch, DTP, NCI, 2023)
pIC50: −log10 of the molar value.

System: NCI-H1341 complex spheroids, percent test/control
Assay: Anticancer human tumor NCI-H1341 cell line growth inhibition [AhR];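 note: spheroids exposed to agents for seven days before readout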
Settings: for pIC50: curve of first compound; for viability, T/C: stronger effect = lower value
Procedure, shortened: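 Complex tumor spheroids co-cultured with HUVEC and human MSC stroma; AhR antagonists tested in combination with standard-of-care and investigational agents. Top concentration at or near clinical Cmax (else 10 microM), half-log dilutions; growth expressed as percent test/control.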

[1] = second compound 0.1 µM, first compound 0.00949 µM
[2] = second compound 0.1 µM, first compound 0.03 µM
[3] = second compound 0.1 µM, first compound 0.0949 µM
[4] = second compound 0.1 µM, first compound 0.3 µM
[5] = second compound 0.316 µM, first compound 0.00949 µM
[6] = second compound 0.316 µM, first compound 0.03 µM
[7] = second compound 0.316 µM, first compound 0.0949 µM
[8] = second compound 0.316 µM, first compound 0.3 µM
[9] = second compound 1 µM, first compound 0.00949 µM
[10] = second compound 1 µM, first compound 0.03 µM
[11] = second compound 1 µM, first compound 0.0949 µM
[12] = second compound 1 µM, first compound 0.3 µM
[13] = second compound 3.16 µM, first compound 0.00949 µM
[14] = second compound 3.16 µM, first compound 0.03 µM
[15] = second compound 3.16 µM, first compound 0.0949 µM
[16] = second compound 3.16 µM, first compound 0.3 µM
[17] = second compound 10 µM, first compound 0.00949 µM
[18] = second compound 10 µM, first compound 0.03 µM
[19] = second compound 10 µM, first compound 0.0949 µM
[20] = second compound 10 µM, first compound 0.3 µM
[21] = second compound 0.1 µM, first compound 0.0316 µM
[22] = second compound 0.1 µM, first compound 0.1 µM
[23] = second compound 0.1 µM, first compound 0.316 µM
[24] = second compound 0.1 µM, first compound 1 µM
[25] = second compound 0.1 µM, first compound 3.16 µM
[26] = second compound 0.1 µM, first compound 10 µM
[27] = second compound 0.316 µM, first compound 0.0316 µM
[28] = second compound 0.316 µM, first compound 0.1 µM
[29] = second compound 0.316 µM, first compound 0.316 µM
[30] = second compound 0.316 µM, first compound 1 µM
[31] = second compound 0.316 µM, first compound 3.16 µM
[32] = second compound 0.316 µM, first compound 10 µM
[33] = second compound 1 µM, first compound 0.0316 µM
[34] = second compound 1 µM, first compound 0.1 µM
[35] = second compound 1 µM, first compound 0.316 µM
[36] = second compound 1 µM, first compound 1 µM
[37] = second compound 1 µM, first compound 3.16 µM
[38] = second compound 1 µM, first compound 10 µM
[39] = second compound 3.16 µM, first compound 0.0316 µM
[40] = second compound 3.16 µM, first compound 0.1 µM
[41] = second compound 3.16 µM, first compound 0.316 µM
[42] = second compound 3.16 µM, first compound 1 µM
[43] = second compound 3.16 µM, first compound 3.16 µM
[44] = second compound 3.16 µM, first compound 10 µM
[45] = second compound 10 µM, first compound 0.0316 µM
[46] = second compound 10 µM, first compound 0.1 µM
[47] = second compound 10 µM, first compound 0.316 µM
[48] = second compound 10 µM, first compound 1 µM
[49] = second compound 10 µM, first compound 3.16 µM
[50] = second compound 10 µM, first compound 10 µM

## CCN(c1cc(-c2ccc(CN3CCOCC3)cc2)cc(C(=O)NCc2c(C)cc(C)[nH]c2=O)c1C)C1CCOCC1 + Cc1cncc(-c2nc(NCCc3c[nH]c4ccccc34)c3ncn(C(C)C)c3n2)c1
Second compound 0.1 µM
  pIC50: < 5.52
Second compound 0.316 µM
  pIC50: < 5.52
Second compound 1 µM
  pIC50: < 5.52
Second compound 3.16 µM
  pIC50: < 5.52
Second compound 10 µM
  pIC50: > 8.02
[1]
  viability, T/C: 72.4%
[2]
  viability, T/C: 91.7%
[3]
  viability, T/C: 68.9%
[4]
  viability, T/C: 70.9%
Second compound 0.1 µM, first compound 0.949 µM
  viability, T/C: 74.5%
Second compound 0.1 µM, first compound 3 µM
  viability, T/C: 63.9%
[5]
  viability, T/C: 97.3%
[6]
  viability, T/C: 82.3%
[7]
  viability, T/C: 89%
[8]
  viability, T/C: 76.1%
Second compound 0.316 µM, first compound 0.949 µM
  viability, T/C: 85%
Second compound 0.316 µM, first compound 3 µM
  viability, T/C: 76.8%
[9]
  viability, T/C: 69.5%
[10]
  viability, T/C: 86.7%
[11]
  viability, T/C: 69.8%
[12]
  viability, T/C: 72%
Second compound 1 µM, first compound 0.949 µM
  viability, T/C: 65%
Second compound 1 µM, first compound 3 µM
  viability, T/C: 57.5%
[13]
  viability, T/C: 66.1%
[14]
  viability, T/C: 77.3%
[15]
  viability, T/C: 66.4%
[16]
  viability, T/C: 67.3%
Second compound 3.16 µM, first compound 0.949 µM
  viability, T/C: 56.7%
Second compound 3.16 µM, first compound 3 µM
  viability, T/C: 54.4%
[17]
  viability, T/C: 40.6%
[18]
  viability, T/C: 41.7%
[19]
  viability, T/C: 44.1%
[20]
  viability, T/C: 33.4%
Second compound 10 µM, first compound 0.949 µM
  viability, T/C: 34.4%
Second compound 10 µM, first compound 3 µM
  viability, T/C: 32.5%

## CC1COCCN1c1cc(C2(S(C)(=N)=O)CC2)nc(-c2ccnc3[nH]ccc23)n1 (stereo not given) + Cc1ccccc1N=Nc1ccc(NC(=O)c2ccnn2C)c(C)c1
Second compound 0.1 µM
  pIC50: 5.80
Second compound 0.316 µM
  pIC50: 5.45
Second compound 1 µM
  pIC50: 5.50
Second compound 3.16 µM
  pIC50: 5.68
Second compound 10 µM
  pIC50: 6.14
[21]
  viability, T/C: 92.7%
[22]
  viability, T/C: 92.3%
[23]
  viability, T/C: 94.4%
[24]
  viability, T/C: 57.6%
[25]
  viability, T/C: 45.2%
[26]
  viability, T/C: 30.3%
[27]
  viability, T/C: 77.1%
[28]
  viability, T/C: 108%
[29]
  viability, T/C: 89%
[30]
  viability, T/C: 81.2%
[31]
  viability, T/C: 52.2%
[32]
  viability, T/C: 31.1%
[33]
  viability, T/C: 88.2%
[34]
  viability, T/C: 114%
[35]
  viability, T/C: 83.2%
[36]
  viability, T/C: 84.3%
[37]
  viability, T/C: 48.6%
[38]
  viability, T/C: 29.4%
[39]
  viability, T/C: 77.9%
[40]
  viability, T/C: 90.2%
[41]
  viability, T/C: 69.2%
[42]
  viability, T/C: 63.4%
[43]
  viability, T/C: 43.6%
[44]
  viability, T/C: 26%
[45]
  viability, T/C: 55.9%
[46]
  viability, T/C: 57.5%
[47]
  viability, T/C: 55.5%
[48]
  viability, T/C: 47.6%
[49]
  viability, T/C: 34.5%
[50]
  viability, T/C: 25.4%

## CCc1c2c(nc3ccc(O)cc13)-c1cc3c(c(=O)n1C2)COC(=O)[C@]3(O)CC + Cc1ccccc1N=Nc1ccc(NC(=O)c2ccnn2C)c(C)c1
Second compound 0.1 µM
  pIC50: 7.88
Second compound 0.316 µM
  pIC50: 7.60
Second compound 1 µM
  pIC50: 7.76
Second compound 3.16 µM
  pIC50: 7.93
Second compound 10 µM
  pIC50: 8.01
Second compound 0.1 µM, first compound 0.000949 µM
  viability, T/C: 107%
Second compound 0.1 µM, first compound 0.003 µM
  viability, T/C: 67.5%
[1]
  viability, T/C: 53.4%
[2]
  viability, T/C: 44.3%
[3]
  viability, T/C: 37%
[4]
  viability, T/C: 15.3%
Second compound 0.316 µM, first compound 0.000949 µM
  viability, T/C: 92.9%
Second compound 0.316 µM, first compound 0.003 µM
  viability, T/C: 84%
[5]
  viability, T/C: 53.2%
[6]
  viability, T/C: 49.5%
[7]
  viability, T/C: 40.1%
[8]
  viability, T/C: 16.5%
Second compound 1 µM, first compound 0.000949 µM
  viability, T/C: 85.5%
Second compound 1 µM, first compound 0.003 µM
  viability, T/C: 74.9%
[9]
  viability, T/C: 50.3%
[10]
  viability, T/C: 43.5%
[11]
  viability, T/C: 35.5%
[12]
  viability, T/C: 13.5%
Second compound 3.16 µM, first compound 0.000949 µM
  viability, T/C: 75.7%
Second compound 3.16 µM, first compound 0.003 µM
  viability, T/C: 58.2%
[13]
  viability, T/C: 51%
[14]
  viability, T/C: 43.5%
[15]
  viability, T/C: 29.7%
[16]
  viability, T/C: 12.1%
Second compound 10 µM, first compound 0.000949 µM
  viability, T/C: 54.3%
Second compound 10 µM, first compound 0.003 µM
  viability, T/C: 48.9%
[17]
  viability, T/C: 48.4%
[18]
  viability, T/C: 44.8%
[19]
  viability, T/C: 22.6%
[20]
  viability, T/C: 7.81%

## COc1cc(Nc2ncc3c(n2)-c2ccc(Cl)cc2C(c2c(F)cccc2OC)=NC3)ccc1C(=O)O + Cc1cncc(-c2nc(NCCc3c[nH]c4ccccc34)c3ncn(C(C)C)c3n2)c1
Second compound 0.1 µM
  pIC50: > 7.50
Second compound 0.316 µM
  pIC50: > 7.50
Second compound 1 µM
  pIC50: > 7.50
Second compound 3.16 µM
  pIC50: > 7.50
Second compound 10 µM
  pIC50: > 7.50
[21]
  viability, T/C: 38.2%
[22]
  viability, T/C: 42.3%
[23]
  viability, T/C: 38.9%
[24]
  viability, T/C: 31.2%
[25]
  viability, T/C: 24.2%
[26]
  viability, T/C: 21%
[27]
  viability, T/C: 37.1%
[28]
  viability, T/C: 37.1%
[29]
  viability, T/C: 34.9%
[30]
  viability, T/C: 23.9%
[31]
  viability, T/C: 26.9%
[32]
  viability, T/C: 22.3%
[33]
  viability, T/C: 36.1%
[34]
  viability, T/C: 39.9%
[35]
  viability, T/C: 34.3%
[36]
  viability, T/C: 30.1%
[37]
  viability, T/C: 25.8%
[38]
  viability, T/C: 20.5%
[39]
  viability, T/C: 42.2%
[40]
  viability, T/C: 37.7%
[41]
  viability, T/C: 40.2%
[42]
  viability, T/C: 37.5%
[43]
  viability, T/C: 27.5%
[44]
  viability, T/C: 24%
[45]
  viability, T/C: 25.4%
[46]
  viability, T/C: 30.3%
[47]
  viability, T/C: 29.8%
[48]
  viability, T/C: 24.2%
[49]
  viability, T/C: 21.2%
[50]
  viability, T/C: 19.4%
